Experimental data: ChEMBL document CHEMBL4813951 (Eur J Med Chem, 2021)
pEC50, pKi: −log10 of the molar value.

Columns and labels:
Histamine H1 receptor = Histamine H1 receptor (Homo sapiens, UniProt P35367); experiment: Displacement of [3H]mepyramine from human histamine H1 receptor expressed in sf9 insect cell membranes co-expressing RGS4 incubated for 60 mins by microbeta scintillation counting method; parameters: species or system Membrane
Histamine H2 receptor [1] = target: T1, Histamine H2 receptor (Homo sapiens, UniProt P25021); experiment: Displacement of [3H]UR-DE257 from human histamine H2 receptor expressed in sf9 insect cell membranes co-expressing GSalphaS incubated for 60 mins by microbeta scintillation counting method; parameters: species or system Membrane
T1 sequence (P25021 whole entry): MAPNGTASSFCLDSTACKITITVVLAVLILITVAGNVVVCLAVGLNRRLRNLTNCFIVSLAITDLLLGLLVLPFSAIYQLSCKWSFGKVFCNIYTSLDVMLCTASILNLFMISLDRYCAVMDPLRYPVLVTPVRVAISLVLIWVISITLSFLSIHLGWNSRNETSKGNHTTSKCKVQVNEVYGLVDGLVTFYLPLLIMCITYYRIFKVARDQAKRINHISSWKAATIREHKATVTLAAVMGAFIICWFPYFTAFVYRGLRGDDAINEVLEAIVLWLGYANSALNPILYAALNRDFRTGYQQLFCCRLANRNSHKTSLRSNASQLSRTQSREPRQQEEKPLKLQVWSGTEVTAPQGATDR

Histamine H3 receptor = Histamine H3 receptor (Homo sapiens, UniProt Q9Y5N1); experiment: Displacement of [3H]UR-P129 from human histamine H3 receptor expressed in sf9 insect cell membranes co-expressing Galphai2/Gbeta1gamma2 incubated for 60 mins by microbeta scintillation counting method; parameters: species or system Membrane
Chain of Histamine H3 receptor (Q9Y5N1 whole entry): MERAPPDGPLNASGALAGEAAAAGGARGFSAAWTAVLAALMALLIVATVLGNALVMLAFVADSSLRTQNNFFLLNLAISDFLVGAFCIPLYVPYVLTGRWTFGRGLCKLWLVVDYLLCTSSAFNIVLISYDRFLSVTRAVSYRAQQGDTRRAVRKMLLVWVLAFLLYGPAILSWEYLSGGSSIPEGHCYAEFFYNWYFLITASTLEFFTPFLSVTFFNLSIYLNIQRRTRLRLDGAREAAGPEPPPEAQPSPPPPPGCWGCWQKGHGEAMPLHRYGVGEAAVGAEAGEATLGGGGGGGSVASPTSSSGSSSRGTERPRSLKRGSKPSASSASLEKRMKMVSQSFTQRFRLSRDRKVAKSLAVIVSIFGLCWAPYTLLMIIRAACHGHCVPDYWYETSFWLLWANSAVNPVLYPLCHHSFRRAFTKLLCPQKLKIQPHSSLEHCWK

Histamine H2 receptor [2] = target: Histamine H2 receptor (Cavia porcellus, UniProt P47747); experiment: Agonist activity at guinea pig right atrium histamine H2 receptor assessed as increase in heart rate incubated for 30 mins in presence of cimetidine; assay type: functional, tissue-based, Right cardiac atrium
Chain of Histamine H2 receptor (Cavia porcellus, UniProt P47747) (P47747 whole entry): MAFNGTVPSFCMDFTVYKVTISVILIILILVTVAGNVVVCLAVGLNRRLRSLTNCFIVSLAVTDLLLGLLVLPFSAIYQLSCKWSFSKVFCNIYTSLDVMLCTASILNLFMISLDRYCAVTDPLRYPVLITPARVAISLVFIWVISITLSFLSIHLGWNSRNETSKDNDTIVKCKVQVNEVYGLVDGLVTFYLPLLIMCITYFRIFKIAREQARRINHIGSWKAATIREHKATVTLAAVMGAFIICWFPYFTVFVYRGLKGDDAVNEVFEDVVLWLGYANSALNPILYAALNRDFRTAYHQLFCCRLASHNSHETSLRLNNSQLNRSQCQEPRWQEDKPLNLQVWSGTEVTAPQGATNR

D(3) dopamine receptor [3] = target: T2, D(3) dopamine receptor (Homo sapiens, UniProt P35462); experiment: Displacement of [3H]N-methylspiperone from human D3 receptor expressed in HEK293T cells co-expressing CRE-Luc incubated for 60 mins by microbeta scintillation counting method; assay type: cell-based
T2 sequence (P35462 whole entry): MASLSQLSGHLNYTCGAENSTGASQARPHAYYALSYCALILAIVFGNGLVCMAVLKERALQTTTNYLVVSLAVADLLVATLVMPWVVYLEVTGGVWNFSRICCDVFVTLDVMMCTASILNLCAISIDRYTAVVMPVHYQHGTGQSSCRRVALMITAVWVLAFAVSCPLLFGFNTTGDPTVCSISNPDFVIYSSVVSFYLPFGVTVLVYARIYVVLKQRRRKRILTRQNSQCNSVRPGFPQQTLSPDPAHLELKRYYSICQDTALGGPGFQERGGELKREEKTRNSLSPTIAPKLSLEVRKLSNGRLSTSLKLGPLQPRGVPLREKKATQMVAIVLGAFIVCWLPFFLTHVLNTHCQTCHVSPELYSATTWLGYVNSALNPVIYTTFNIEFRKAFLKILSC

D(3) dopamine receptor [4] = target: T2, D(3) dopamine receptor; experiment: Agonist activity at […] expressed in HEK293T cells co-expressing ELucC by beta arrestin2 recruitment assay; assay type: functional, cell-based
Histamine H4 receptor = Histamine H4 receptor (Homo sapiens, UniProt Q9H3N8)
[5] = target: Histamine H2 receptor (Cavia porcellus) (UniProt P47747); experiment: Agonist activity at guinea pig right atrium histamine H2 receptor assessed as intrinsic activity incubated for 30 mins in presence of cimetidine relative to histamine; assay type: functional, tissue-based; conditions: Right cardiac atrium, filed as agonist
Chain of Histamine H2 receptor (Cavia porcellus) (P47747 whole entry): as the sequence (P47747 whole entry) above

Histamine H2 receptor [6] = target: T1, Histamine H2 receptor; experiment: Agonist activity at human histamine H2 receptor expressed in HEK293T cells co-expressing ELucC by beta arrestin2 recruitment assay; assay type: functional, cell-based
D(2) dopamine receptor [7] = target: T3, D(2) dopamine receptor (Homo sapiens, UniProt P14416); experiment: Displacement of [3H]N-methylspiperone from human D2L receptor expressed in HEK293T cells co-expressing CRE-Luc incubated for 60 mins by microbeta scintillation counting method; assay type: cell-based
T3 sequence (P14416 whole entry): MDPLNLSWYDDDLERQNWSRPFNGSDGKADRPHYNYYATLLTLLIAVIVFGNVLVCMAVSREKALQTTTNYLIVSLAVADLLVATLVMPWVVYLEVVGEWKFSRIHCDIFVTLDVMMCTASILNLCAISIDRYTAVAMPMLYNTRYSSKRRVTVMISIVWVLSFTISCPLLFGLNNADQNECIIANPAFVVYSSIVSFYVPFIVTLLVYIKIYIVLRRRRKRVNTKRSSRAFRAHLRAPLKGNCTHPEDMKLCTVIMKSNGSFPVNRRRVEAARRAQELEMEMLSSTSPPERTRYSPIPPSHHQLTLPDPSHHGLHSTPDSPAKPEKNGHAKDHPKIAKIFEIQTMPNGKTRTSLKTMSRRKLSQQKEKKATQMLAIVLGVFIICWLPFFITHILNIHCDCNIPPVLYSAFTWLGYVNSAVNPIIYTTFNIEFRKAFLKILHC

D(2) dopamine receptor [8] = target: T3, D(2) dopamine receptor; assay type: functional, cell-based, HEK293T
Histamine H2 receptor [9] = target: T1, Histamine H2 receptor; experiment: Agonist activity at human histamine receptor expressed in sf9 insect cell membranes co-exprssing GsalphaS incubated for 90 mins [35S]GTPgammaS binding based microbeta scintillation counting analysis; assay type: functional, Membrane
Histamine H2 receptor [10] = target: T1, Histamine H2 receptor; experiment: Agonist activity at human histamine H2 receptor expressed in sf9 insect cell membranes co-exprssing GsalphaS assessed as intrinsic activity at >=30 uM incubated for 90 mins [35S]GTPgammaS binding based microbeta scintillation counting analysis relative to histamine; assay type: functional; conditions: Membrane, filed as agonist, dose microM >=30, time 90.0 min

Chain of Histamine H1 receptor (P35367 whole entry): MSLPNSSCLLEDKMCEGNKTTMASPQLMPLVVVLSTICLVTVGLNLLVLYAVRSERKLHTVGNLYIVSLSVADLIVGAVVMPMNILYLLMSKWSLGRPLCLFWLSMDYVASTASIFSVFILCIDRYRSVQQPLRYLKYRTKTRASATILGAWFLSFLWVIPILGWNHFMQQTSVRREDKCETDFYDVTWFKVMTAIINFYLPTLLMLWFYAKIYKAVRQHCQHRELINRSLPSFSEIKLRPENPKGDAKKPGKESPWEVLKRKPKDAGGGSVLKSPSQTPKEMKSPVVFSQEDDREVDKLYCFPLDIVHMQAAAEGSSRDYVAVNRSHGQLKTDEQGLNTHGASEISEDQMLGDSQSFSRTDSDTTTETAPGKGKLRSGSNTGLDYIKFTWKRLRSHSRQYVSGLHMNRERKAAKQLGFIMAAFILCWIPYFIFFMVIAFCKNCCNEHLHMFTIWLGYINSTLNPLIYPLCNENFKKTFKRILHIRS

Compound | pKi (Histamine H1 receptor) | pKi (Histamine H2 receptor [1]) | pKi (Histamine H3 receptor) | pKi (D(3) dopamine receptor [3]) | pEC50 (D(3) dopamine receptor [4]) | pKi (Histamine H4 receptor) | Intrinsic activity [5] | pEC50 (Histamine H2 receptor [6]) | pKi (D(2) dopamine receptor [7]) | pEC50 (D(2) dopamine receptor [8]) | pEC50 (Histamine H2 receptor [9]) | Intrinsic activity (Histamine H2 receptor [10]) | pEC50 (Histamine H2 receptor [2])
Cc1nc(N)sc1CCCN/C(N)=N/C(=O)N[C@@H](C)c1ccccc1 | 4.67 | 7.29 | 4.48 | 7.61 | 6.64 | 4.75 | – | – | – | – | – | – | 7.63
Cc1nc(N)sc1CCCN/C(N)=N/C(=O)NC[C@H](C)c1ccccc1 | 5.06 | 7.00 | 4.77 | – | – | 4.92 | 0.99 | – | – | – | – | – | 7.59
Cc1nc(N)sc1CCCN/C(N)=N/C(=O)NC(C)c1cccc(F)c1 (stereo not given) | 5.11 | 8.69 | 4.41 | 8.06 | 7.14 | 4.88 | – | 7.19 | – | – | – | – | 7.58
Cc1nc(N)sc1CCCN/C(N)=N/C(=O)NC(c1ccccc1)C(C)C (stereo not given) | 4.61 | 7.45 | 4.72 | – | – | 5.10 | 1.04 | – | – | – | – | – | 7.46
Cc1nc(N)sc1CCCN/C(N)=N/C(=S)N[C@@H](C)c1ccccc1 | 4.11 | 6.47 | 4.09 | – | – | 4.26 | 0.65 | – | – | – | – | – | 6.65
Cc1ccc(CC(C)CNC(=O)/N=C(\N)NCCCc2sc(N)nc2C)cc1 (stereo not given) | 5.78 | 7.14 | 5.49 | – | – | 5.44 | – | 6.88 | – | – | 7.22 | – | –
N/C(=N\C(=O)NCCc1ccccc1)Nc1cccc(-c2csc(N)n2)c1 | – | – | – | – | – | 4.52 | – | – | – | – | – | – | –
CCCCCCNC(=O)/N=C(\N)NC1CCc2nc(N)sc2C1 (stereo not given) | 5.71 | 5.95 | 5.82 | 5.90 | – | 4.78 | – | – | 5.90 | – | 6.83 | 0.16 | –
Cc1nc(N)sc1CCCN/C(N)=N/C(=O)NC(C)c1ccc(Cl)cc1 (stereo not given) | 5.35 | 7.33 | 4.75 | – | – | 5.07 | 0.93 | – | – | – | – | – | 7.61
Cc1nc(N)sc1CCCN/C(N)=N/C(=O)NCC(C)CCCc1ccccc1 (stereo not given) | 5.15 | 7.22 | 5.64 | – | – | 6.11 | – | 5.60 | – | – | – | – | –
Cc1nc(N)sc1CCCN/C(N)=N/C(=O)NCC(C)CC1CCCCC1 (stereo not given) | 5.42 | 7.15 | 5.13 | 6.88 | 6.52 | 5.43 | – | 6.52 | – | – | 7.76 | – | –
Cc1nc(N)sc1CCCN/C(N)=N/C(=O)NCC(c1ccccc1)c1ccccc1 | 5.28 | 7.06 | 5.00 | – | – | 5.31 | 0.76 | – | – | – | – | – | 6.76
Cc1nc(N)sc1CCCN/C(N)=N/C(=O)NC(C)c1ccc(OC(F)(F)F)cc1 (stereo not given) | 4.66 | 6.90 | 4.84 | – | – | 5.09 | 0.61 | – | – | – | – | – | 6.14
Cc1nc(N)sc1CCCN/C(N)=N/C(=O)NC(C)c1ccccc1F (stereo not given) | 4.77 | 7.54 | 4.51 | – | – | 4.89 | 0.93 | – | – | – | – | – | 7.91
Cc1nc(N)sc1CCCN/C(N)=N/C(=S)NC(c1ccccc1)c1ccccc1 | 4.33 | 6.22 | 4.36 | – | – | 4.63 | 0.67 | – | – | – | – | – | 7.18
CCC(NC(=O)/N=C(\N)NCCCc1sc(N)nc1C)c1ccccc1 (stereo not given) | 4.90 | 7.20 | 4.66 | – | – | 4.95 | 0.93 | – | – | – | – | – | 7.97
Cc1nc(N)sc1CCCN/C(N)=N/C(=O)NC(c1ccccc1)C(F)(F)F (stereo not given) | 4.27 | 6.64 | 4.50 | – | – | 4.76 | 0.85 | – | – | – | – | – | 7.32
CCCN[C@@H]1CCc2nc(N)sc2C1 [DEXPRAMIPEXOLE] | – | 4.86 | – | – | – | – | – | 4.40 | – | – | 5.07 | – | –

Second part, led by results:

pKi (Histamine H1 receptor) | pKi (Histamine H2 receptor [1]) | pKi (Histamine H3 receptor) | pKi (D(3) dopamine receptor [3]) | pEC50 (D(3) dopamine receptor [4]) | pKi (Histamine H4 receptor) | Intrinsic activity [5] | pEC50 (Histamine H2 receptor [6]) | pKi (D(2) dopamine receptor [7]) | pEC50 (D(2) dopamine receptor [8]) | pEC50 (Histamine H2 receptor [9]) | Intrinsic activity (Histamine H2 receptor [10]) | Compound | pEC50 (Histamine H2 receptor [2])
4.34 | 7.50 | 4.36 | 7.76 | 6.99 | 4.34 | 1 | 6.63 | 5.77 | 5.97 | – | – | Cc1nc(N)sc1CCCN/C(N)=N/C(=O)NC(C)c1ccco1 (stereo not given) | 8.01
5.54 | 7.52 | 4.89 | – | – | 5.09 | 0.87 | – | – | – | – | – | Cc1nc(N)sc1CCCN/C(N)=N/C(=O)NC(C)c1ccc(Br)cc1 (stereo not given) | 7.26
3.96 | 6.94 | 4.19 | 7.22 | 6.78 | 4.57 | 0.87 | 6.43 | 5.93 | 5.82 | – | – | Cc1nc(N)sc1CCCN/C(N)=N/C(=S)N[C@H](C)c1ccccc1 | 7.05
– | 5.50 | – | – | – | 4.65 | – | 5.47 | – | – | 6.28 | 0.59 | Cc1nc(N)sc1CCCN/C(N)=N/C(=O)Nc1ccccc1 | –
5.23 | 7.43 | 4.48 | – | – | 4.70 | 0.91 | – | – | – | – | – | COc1ccc(C(C)NC(=O)/N=C(\N)NCCCc2sc(N)nc2C)cc1 (stereo not given) | 7.42
4.28 | 6.37 | 4.08 | – | – | 4.49 | 0.66 | – | – | – | – | – | Cc1nc(N)sc1CCCN/C(N)=N/C(=S)NC[C@@H](C)c1ccccc1 | 6.83
4.62 | 7.98 | 4.13 | – | – | 4.12 | 0.58 | – | – | – | – | – | Cc1nc(N)sc1CCCN/C(N)=N/C(=O)NCc1ccco1 | 7.93
5.02 | 6.99 | 4.57 | – | – | 4.87 | 0.98 | – | – | – | – | – | Cc1nc(N)sc1CCCN/C(N)=N/C(=O)NC[C@@H](C)c1ccccc1 | 7.89
5.29 | 7.51 | 4.58 | – | – | 4.95 | 0.85 | – | – | – | – | – | Cc1ccc(C(C)NC(=O)/N=C(\N)NCCCc2sc(N)nc2C)cc1 (stereo not given) | 7.65
5.10 | 7.11 | 4.78 | 7.19 | 7.39 | 5.17 | – | 6.57 | – | – | 7.54 | – | CCC(CNC(=O)/N=C(\N)NCCCc1sc(N)nc1C)c1ccccc1 (stereo not given) | –
4.54 | 6.98 | 4.35 | – | – | 4.06 | – | 6.77 | – | – | 6.75 | 0.79 | CCCNC(=O)/N=C(\N)NCCCc1sc(N)nc1C | –
5.92 | 6.29 | 5.48 | 5.30 | – | 4.52 | – | 5.36 | 6.26 | – | 6.67 | 0.53 | N/C(=N\C(=O)NCc1ccccc1)NC1CCc2nc(N)sc2C1 (stereo not given) | –
– | 6.80 | – | – | – | 4.83 | – | 6.78 | – | – | 7.35 | 0.72 | Cc1nc(N)sc1CCCN/C(N)=N/C(=O)NCCc1ccccc1 | –
– | – | – | – | – | 4.46 | – | – | – | – | – | – | N/C(=N\C(=O)NCc1ccccc1)Nc1cccc(-c2csc(N)n2)c1 | –
4.20 | 5.94 | 4.16 | – | – | 4.35 | 0.44 | – | – | – | – | – | Cc1nc(N)sc1CCCN/C(N)=N/C(=S)NC[C@H](C)c1ccccc1 | 6.31
4.97 | 8.35 | 4.98 | – | – | 5.37 | – | 6.75 | 6.35 | 5.98 | – | – | CCCCCNC(=O)/N=C(\N)NCCCc1sc(N)nc1C | 8.24
4.99 | 7.50 | 4.59 | – | – | 4.86 | 0.92 | – | – | – | – | – | Cc1nc(N)sc1CCCN/C(N)=N/C(=O)NC(C)c1ccc(F)cc1 (stereo not given) | 7.63
4.59 | 7.20 | 4.23 | – | – | 4.52 | 0.88 | – | – | – | – | – | Cc1nc(N)sc1CCCN/C(N)=N/C(=O)NC(C)c1cccs1 (stereo not given) | 8.00
5.21 | 7.16 | 4.71 | 7.34 | 7.47 | 4.72 | – | 7.00 | 6.22 | 5.78 | 7.54 | 0.91 | Cc1nc(N)sc1CCCN/C(N)=N/C(=O)NCc1ccccc1 | –
4.61 | 6.77 | – | – | – | 4.50 | – | 6.41 | – | – | 6.83 | – | Cc1nc(N)sc1CCCN/C(N)=N/C(=O)NC1CCCCC1 | –
4.80 | – | 5.04 | – | – | 5.20 | – | – | – | – | – | – | Cc1nc(N)sc1CCCN/C(N)=N/C(=O)NC(c1ccccc1)c1ccccc1 | 7.40
